Test results from PubChem BioAssay (NCI).
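48-hour exposure; five concentrations; linearly interpolated endpoints. The concentration for full growth arrest is given as TGI.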

What was measured:
Assay in all cases: NCI-60 cell line screen, 48 h
786-0 renal = tested on: 786-0 renal
A498 renal = tested on: A498 renal
A549 NSCLC = tested on: A549 NSCLC
ACHN renal = tested on: ACHN renal
BT-549 breast = tested on: BT-549 breast
CAKI-1 renal = tested on: CAKI-1 renal
CCRF-CEM leukemia = tested on: CCRF-CEM leukemia
COLO 205 colon = tested on: COLO 205 colon
DU-145 prostate = tested on: DU-145 prostate
EKVX NSCLC = tested on: EKVX NSCLC
HCC-2998 colon = tested on: HCC-2998 colon
HCT-116 colon = tested on: HCT-116 colon
HCT-15 colon = tested on: HCT-15 colon
HL-60(TB) leukemia = tested on: HL-60(TB) leukemia
HOP-62 NSCLC = tested on: HOP-62 NSCLC
HOP-92 NSCLC = tested on: HOP-92 NSCLC
HS 578T breast = tested on: HS 578T breast
HT29 colon = tested on: HT29 colon
IGROV1 ovarian = tested on: IGROV1 ovarian
KM12 colon = tested on: KM12 colon
LOX IMVI melanoma = tested on: LOX IMVI melanoma
M14 melanoma = tested on: M14 melanoma
MALME-3M melanoma = tested on: MALME-3M melanoma
MCF7 breast = tested on: MCF7 breast
MDA-MB-231 breast = tested on: MDA-MB-231 breast
MDA-MB-435 = tested on: MDA-MB-435
MDA-N = tested on: MDA-N
MOLT-4 leukemia = tested on: MOLT-4 leukemia
NCI-H226 lung = tested on: NCI-H226 lung
NCI-H23 lung = tested on: NCI-H23 lung
NCI-H460 lung = tested on: NCI-H460 lung
NCI-H522 lung = tested on: NCI-H522 lung
OVCAR-4 ovarian = tested on: OVCAR-4 ovarian
OVCAR-5 ovarian = tested on: OVCAR-5 ovarian
OVCAR-8 ovarian = tested on: OVCAR-8 ovarian
PC-3 prostate = tested on: PC-3 prostate
RXF 393 renal = tested on: RXF 393 renal
SF-268 CNS = tested on: SF-268 CNS
SF-295 CNS = tested on: SF-295 CNS
SF-539 CNS = tested on: SF-539 CNS
SK-MEL-2 melanoma = tested on: SK-MEL-2 melanoma
SK-MEL-28 melanoma = tested on: SK-MEL-28 melanoma
SK-MEL-5 melanoma = tested on: SK-MEL-5 melanoma
SK-OV-3 ovarian = tested on: SK-OV-3 ovarian
SN12C renal = tested on: SN12C renal
SNB-19 CNS = tested on: SNB-19 CNS
SNB-75 CNS = tested on: SNB-75 CNS
SW-620 colon = tested on: SW-620 colon
T-47D breast = tested on: T-47D breast
TK-10 renal = tested on: TK-10 renal
U251 CNS = tested on: U251 CNS
UACC-257 melanoma = tested on: UACC-257 melanoma
UACC-62 melanoma = tested on: UACC-62 melanoma
UO-31 renal = tested on: UO-31 renal
NCI/ADR-RES ovarian = tested on: NCI/ADR-RES ovarian
OVCAR-3 ovarian = tested on: OVCAR-3 ovarian
RPMI-8226 leukemia = tested on: RPMI-8226 leukemia
K-562 leukemia = tested on: K-562 leukemia

`CC1=C(C)C(=O)C(C2=C(C3=CC(=O)C(C)=C(C)C3=O)C(=O)C(C)=C(C)C2=O)=CC1=O` gave a TGI (786-0 renal) of over 49.4 µM, a TGI (A498 renal) of 21.5 µM and a TGI (A549 NSCLC) of over 84.4 µM. The TGI (ACHN renal) was 18.3 µM, the TGI (BT-549 breast) was 21.6 µM and the TGI (CAKI-1 renal) was 8.87 µM. For the same compound, the TGI (CCRF-CEM leukemia) was over 100 µM, the TGI (COLO 205 colon) was 8.07 µM and the TGI (DU-145 prostate) was 30 µM. It also gave a TGI (EKVX NSCLC) of over 70 µM, a TGI (HCC-2998 colon) of 28.6 µM and a TGI (HCT-116 colon) of over 100 µM. For the same compound, the TGI (HCT-15 colon) was over 61.8 µM, the TGI (HL-60(TB) leukemia) was over 100 µM and the TGI (HOP-62 NSCLC) was 36.5 µM. The TGI (HOP-92 NSCLC) was over 51.2 µM, the TGI (HS 578T breast) was over 79.7 µM and the TGI (HT29 colon) was 9.02 µM. The TGI (IGROV1 ovarian) was 31.2 µM, the TGI (KM12 colon) was 30.4 µM and the TGI (LOX IMVI melanoma) was over 21.3 µM. For the same compound, the TGI (M14 melanoma) was over 40.7 µM, the TGI (MALME-3M melanoma) was 11.4 µM and the TGI (MCF7 breast) was over 21.1 µM. The TGI (MDA-MB-231 breast) was 5.29 µM, the TGI (MDA-MB-435) was 14.2 µM and the TGI (MDA-N) was over 20.2 µM. It also gave a TGI (MOLT-4 leukemia) of over 100 µM, a TGI (NCI-H226 lung) of 31.8 µM and a TGI (NCI-H23 lung) of 43.1 µM. The TGI (NCI-H460 lung) was 29.6 µM, the TGI (NCI-H522 lung) was 5.21 µM and the TGI (OVCAR-4 ovarian) was 4.57 µM. It also gave a TGI (OVCAR-5 ovarian) of over 34.6 µM, a TGI (OVCAR-8 ovarian) of over 47.1 µM and a TGI (PC-3 prostate) of 16 µM. It also gave a TGI (RXF 393 renal) of 5.16 µM, a TGI (SF-268 CNS) of 34.5 µM and a TGI (SF-295 CNS) of 33.8 µM. For the same compound, the TGI (SF-539 CNS) was 4.99 µM, the TGI (SK-MEL-2 melanoma) was 31 µM and the TGI (SK-MEL-28 melanoma) was 14 µM. For the same compound, the TGI (SK-MEL-5 melanoma) was 5.85 µM, the TGI (SK-OV-3 ovarian) was 32.6 µM and the TGI (SN12C renal) was 47.9 µM. The TGI (SNB-19 CNS) was over 100 µM, the TGI (SNB-75 CNS) was 33.3 µM and the TGI (SW-620 colon) was 13 µM. The TGI (T-47D breast) was 7.32 µM, the TGI (TK-10 renal) was 27 µM and the TGI (U251 CNS) was over 38.2 µM. For the same compound, the TGI (UACC-257 melanoma) was 28.4 µM, the TGI (UACC-62 melanoma) was 25.9 µM and the TGI (UO-31 renal) was 34.1 µM.
For `O=C1c2c(O)ccc(O)c2C(=O)c2c(NCCNC(=O)C(O)C(O)C(O)C(O)CO)ccc(NCCNC(=O)C(O)C(O)C(O)C(O)CO)c21` (stereo not drawn), the TGI (786-0 renal) was 0.0531 µM, the TGI (A549 NSCLC) was 1.53 µM and the TGI (ACHN renal) was 0.101 µM. It also gave a TGI (BT-549 breast) of 2.36 µM, a TGI (COLO 205 colon) of 0.578 µM and a TGI (DU-145 prostate) of 0.254 µM. It also gave a TGI (EKVX NSCLC) of 1.42 µM, a TGI (HCC-2998 colon) of 0.483 µM and a TGI (HCT-116 colon) of 0.197 µM. It also gave a TGI (HCT-15 colon) of 1.04 µM, a TGI (HL-60(TB) leukemia) of 0.0149 µM and a TGI (HOP-62 NSCLC) of 1.13 µM. For the same compound, the TGI (HS 578T breast) was 2.7 µM, the TGI (HT29 colon) was 0.399 µM and the TGI (IGROV1 ovarian) was 1.45 µM. It also gave a TGI (KM12 colon) of 0.534 µM, a TGI (M14 melanoma) of 1.39 µM and a TGI (MALME-3M melanoma) of 2.65 µM. For the same compound, the TGI (MCF7 breast) was 0.243 µM, the TGI (MDA-MB-231 breast) was 0.633 µM and the TGI (MDA-N) was 0.601 µM. For the same compound, the TGI (NCI-H226 lung) was 0.524 µM, the TGI (NCI-H23 lung) was 0.417 µM and the TGI (NCI-H460 lung) was 0.0159 µM. For the same compound, the TGI (NCI-H522 lung) was 0.218 µM, the TGI (NCI/ADR-RES ovarian) was 2.24 µM and the TGI (OVCAR-3 ovarian) was 2.29 µM. For the same compound, the TGI (OVCAR-4 ovarian) was 0.771 µM, the TGI (OVCAR-5 ovarian) was 1.88 µM and the TGI (OVCAR-8 ovarian) was 0.528 µM. It also gave a TGI (PC-3 prostate) of 1.51 µM, a TGI (RPMI-8226 leukemia) of 0.202 µM and a TGI (RXF 393 renal) of 0.812 µM. It also gave a TGI (SF-268 CNS) of 1.98 µM, a TGI (SF-295 CNS) of 0.0291 µM and a TGI (SF-539 CNS) of 0.44 µM. It also gave a TGI (SK-MEL-2 melanoma) of 2.88 µM, a TGI (SK-MEL-5 melanoma) of 0.522 µM and a TGI (SK-OV-3 ovarian) of 1.41 µM. The TGI (SN12C renal) was 0.0118 µM, the TGI (SNB-75 CNS) was 1.23 µM and the TGI (T-47D breast) was 2.35 µM. It also gave a TGI (TK-10 renal) of 1.37 µM, a TGI (UACC-257 melanoma) of 7.24 µM and a TGI (UACC-62 melanoma) of 1.04 µM. It also gave a TGI (UO-31 renal) of 0.352 µM.
`CN1C(=O)C(/C=N/NC(=O)c2cccnc2)C(N)N(C)C1=O` (stereo not drawn) was tested, and the TGI (786-0 renal) was over 100 µM, the TGI (A549 NSCLC) was over 100 µM and the TGI (ACHN renal) was over 100 µM. It also gave a TGI (BT-549 breast) of over 100 µM, a TGI (CAKI-1 renal) of over 100 µM and a TGI (CCRF-CEM leukemia) of over 100 µM. The TGI (COLO 205 colon) was over 100 µM, the TGI (DU-145 prostate) was over 100 µM and the TGI (EKVX NSCLC) was over 100 µM. For the same compound, the TGI (HCC-2998 colon) was over 100 µM, the TGI (HCT-116 colon) was over 100 µM and the TGI (HCT-15 colon) was over 100 µM. The TGI (HOP-62 NSCLC) was over 100 µM, the TGI (HS 578T breast) was over 100 µM and the TGI (HT29 colon) was over 100 µM. The TGI (IGROV1 ovarian) was over 100 µM, the TGI (K-562 leukemia) was over 100 µM and the TGI (KM12 colon) was over 100 µM. The TGI (M14 melanoma) was over 100 µM, the TGI (MALME-3M melanoma) was over 100 µM and the TGI (MCF7 breast) was over 100 µM. The TGI (MDA-MB-231 breast) was over 100 µM, the TGI (MDA-MB-435) was over 100 µM and the TGI (MDA-N) was over 100 µM. The TGI (MOLT-4 leukemia) was over 100 µM, the TGI (NCI-H226 lung) was over 100 µM and the TGI (NCI-H23 lung) was over 100 µM. For the same compound, the TGI (NCI-H460 lung) was over 100 µM, the TGI (NCI-H522 lung) was over 100 µM and the TGI (NCI/ADR-RES ovarian) was over 100 µM. The TGI (OVCAR-3 ovarian) was over 100 µM, the TGI (OVCAR-4 ovarian) was over 100 µM and the TGI (OVCAR-5 ovarian) was over 100 µM. The TGI (OVCAR-8 ovarian) was over 100 µM, the TGI (PC-3 prostate) was over 100 µM and the TGI (RPMI-8226 leukemia) was over 100 µM. It also gave a TGI (RXF 393 renal) of over 100 µM, a TGI (SF-268 CNS) of over 100 µM and a TGI (SF-295 CNS) of over 100 µM. It also gave a TGI (SK-MEL-2 melanoma) of over 100 µM, a TGI (SK-MEL-28 melanoma) of over 100 µM and a TGI (SK-MEL-5 melanoma) of over 100 µM. It also gave a TGI (SK-OV-3 ovarian) of over 100 µM, a TGI (SN12C renal) of over 100 µM and a TGI (SNB-19 CNS) of over 100 µM. For the same compound, the TGI (SNB-75 CNS) was over 100 µM, the TGI (SW-620 colon) was over 100 µM and the TGI (T-47D breast) was over 100 µM. The TGI (TK-10 renal) was over 100 µM, the TGI (U251 CNS) was over 100 µM and the TGI (UACC-257 melanoma) was over 100 µM. It also gave a TGI (UACC-62 melanoma) of over 100 µM and a TGI (UO-31 renal) of over 100 µM.
